For one data set, the system named is corn plant. Particulars: corn at 2.5-leaf stage, spot-on 2nd leaf; dicamba-biproamine 4,000,000 ng/plant (acid equivalent), PPO inhibitor 2 ng/plant where added; 6 days after treatment.
Another data set has as its system soybean plant. The settings on record: soybean at 2 trifoliate leaf stage, spot-on 2nd trifoliate leaf; dicamba-biproamine 40,000 ng/plant (acid equivalent), PPO inhibitor 20 ng/plant where added; 6 days after treatment; visually estimated.

Procedure for corn plant: An aqueous dilution of trifludimoxazin was prepared by mixing one part of a trifludimoxazin formulation (obtained by mixing a predetermined amount of trifludimoxazin with acetone containing 2% of Tween 20) with 4 parts of water, so as to have a concentration of 0.1 ppm of trifludimoxazin.
6 days after the spot-on treatments, an angle of inclination of the main tiller of the corn plant from the vertical line was measured as a quantitative measure of dicamba corn injury of leaning tiller.

As for `CN(CCCN)CCCN.COc1c(Cl)ccc(Cl)c1C(=O)O` [Dicamba-biproamine, dicamba-biproamine], the “Angle of inclination of the main tiller from the vertical line” value in the data set with corn plant came out at 90 degrees. Further, the “Leaf area (% of non-treated)” value in the data set on soybean plant is 40%.

Values taken from patent US10674725B1, “Herbicidal composition and method for controlling weeds” (SUMITOMO CHEMICAL COMPANY, LIMITED, priority 2019, dated 2020).
